The values below come from ChEMBL document CHEMBL5291721, “A preclinical secondary pharmacology resource illuminates target-adverse drug reaction associations of marketed drugs” (Nat Commun, 2023).

The target in test [1] is T1, Adenosine receptor A1 (Homo sapiens, UniProt P30542).
T1 sequence (P30542 whole entry): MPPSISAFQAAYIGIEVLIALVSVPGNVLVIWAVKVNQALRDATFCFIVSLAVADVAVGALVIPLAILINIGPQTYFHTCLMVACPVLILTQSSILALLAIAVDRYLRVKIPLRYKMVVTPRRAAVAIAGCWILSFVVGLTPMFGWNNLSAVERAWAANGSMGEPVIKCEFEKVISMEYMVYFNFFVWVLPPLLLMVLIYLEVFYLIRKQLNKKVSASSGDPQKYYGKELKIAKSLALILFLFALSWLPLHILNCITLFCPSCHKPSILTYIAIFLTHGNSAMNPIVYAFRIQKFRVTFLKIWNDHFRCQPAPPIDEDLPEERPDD

Test [2] deals with Beta-1 adrenergic receptor (Homo sapiens, UniProt P08588). The class given is functional, cell-based.
Test [3] deals with T2, Oxysterols receptor LXR-beta (Homo sapiens, UniProt P55055).
T2 sequence (P55055 whole entry): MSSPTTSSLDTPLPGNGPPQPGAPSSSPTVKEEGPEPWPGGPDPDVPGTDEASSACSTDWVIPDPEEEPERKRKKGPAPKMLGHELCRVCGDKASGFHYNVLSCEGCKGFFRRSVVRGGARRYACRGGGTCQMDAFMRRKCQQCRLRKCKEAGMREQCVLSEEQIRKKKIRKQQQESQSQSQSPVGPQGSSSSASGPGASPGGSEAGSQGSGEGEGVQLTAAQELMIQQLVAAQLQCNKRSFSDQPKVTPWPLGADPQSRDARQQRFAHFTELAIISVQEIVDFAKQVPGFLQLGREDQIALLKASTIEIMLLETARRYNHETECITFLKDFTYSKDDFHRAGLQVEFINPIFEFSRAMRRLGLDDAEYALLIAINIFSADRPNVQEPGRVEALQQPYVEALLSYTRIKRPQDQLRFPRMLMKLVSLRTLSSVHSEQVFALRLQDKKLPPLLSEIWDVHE
The class given is functional.

The target in test [4] is T3, Bile acid receptor (Homo sapiens, UniProt Q96RI1).
T3 sequence (Q96RI1 whole entry): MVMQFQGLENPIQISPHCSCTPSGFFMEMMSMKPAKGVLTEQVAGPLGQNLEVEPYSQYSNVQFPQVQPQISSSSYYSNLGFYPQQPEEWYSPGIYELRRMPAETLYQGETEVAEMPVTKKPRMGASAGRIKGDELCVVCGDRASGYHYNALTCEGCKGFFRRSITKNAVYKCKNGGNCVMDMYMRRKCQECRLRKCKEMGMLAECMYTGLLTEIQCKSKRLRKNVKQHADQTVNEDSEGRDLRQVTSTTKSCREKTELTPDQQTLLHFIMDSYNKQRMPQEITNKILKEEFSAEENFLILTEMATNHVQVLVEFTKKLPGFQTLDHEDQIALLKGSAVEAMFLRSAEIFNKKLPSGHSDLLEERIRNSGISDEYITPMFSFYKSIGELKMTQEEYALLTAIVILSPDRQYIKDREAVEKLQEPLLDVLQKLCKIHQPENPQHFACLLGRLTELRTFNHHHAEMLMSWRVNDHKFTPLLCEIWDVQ
The test is classed as functional.

In test [5] the target is T3, Bile acid receptor. The test is classed as functional. This is another data set of the same source.
The target of test [6] is T4, Peroxisome proliferator-activated receptor alpha (Homo sapiens, UniProt Q07869).
T4 sequence (Q07869 whole entry): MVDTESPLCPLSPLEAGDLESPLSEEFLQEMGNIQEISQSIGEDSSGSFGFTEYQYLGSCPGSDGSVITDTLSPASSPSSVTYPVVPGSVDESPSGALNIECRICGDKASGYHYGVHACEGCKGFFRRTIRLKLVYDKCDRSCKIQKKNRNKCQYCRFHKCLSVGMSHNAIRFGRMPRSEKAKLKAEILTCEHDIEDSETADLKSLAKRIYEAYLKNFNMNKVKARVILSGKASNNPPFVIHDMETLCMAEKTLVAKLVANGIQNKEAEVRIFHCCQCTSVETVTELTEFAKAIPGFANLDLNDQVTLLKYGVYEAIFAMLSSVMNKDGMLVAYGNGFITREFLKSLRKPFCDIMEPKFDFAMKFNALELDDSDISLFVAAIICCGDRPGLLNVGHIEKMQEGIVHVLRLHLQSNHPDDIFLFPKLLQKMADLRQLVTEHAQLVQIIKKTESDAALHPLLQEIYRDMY
The test is classed as functional.

Test [7] concerns the target T5, Muscarinic acetylcholine receptor M4 (Homo sapiens, UniProt P08173).
T5 sequence (P08173 whole entry): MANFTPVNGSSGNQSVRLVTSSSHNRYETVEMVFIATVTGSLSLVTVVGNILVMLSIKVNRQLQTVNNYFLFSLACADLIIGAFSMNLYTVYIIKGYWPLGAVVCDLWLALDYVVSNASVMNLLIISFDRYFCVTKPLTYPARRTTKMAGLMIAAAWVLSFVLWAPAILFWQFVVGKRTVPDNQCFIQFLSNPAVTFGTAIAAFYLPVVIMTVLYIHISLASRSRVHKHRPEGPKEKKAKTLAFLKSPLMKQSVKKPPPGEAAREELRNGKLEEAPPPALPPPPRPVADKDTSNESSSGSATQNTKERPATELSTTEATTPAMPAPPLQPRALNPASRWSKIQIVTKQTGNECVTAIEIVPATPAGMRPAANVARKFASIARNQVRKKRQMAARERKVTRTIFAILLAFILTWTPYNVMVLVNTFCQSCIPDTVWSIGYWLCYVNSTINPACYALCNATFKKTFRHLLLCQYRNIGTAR

The target in test [8] is Gamma-aminobutyric acid type B receptor subunit 1 (Homo sapiens, UniProt Q9UBS5).
In test [9] the target is Histamine H2 receptor (Homo sapiens, UniProt P25021).
Test [10] deals with Rod cGMP-specific 3',5'-cyclic phosphodiesterase subunit alpha (Homo sapiens, UniProt P16499). The test is classed as functional.
Test [11] addresses T6, Substance-K receptor (Homo sapiens, UniProt P21452).
T6 sequence (P21452 whole entry): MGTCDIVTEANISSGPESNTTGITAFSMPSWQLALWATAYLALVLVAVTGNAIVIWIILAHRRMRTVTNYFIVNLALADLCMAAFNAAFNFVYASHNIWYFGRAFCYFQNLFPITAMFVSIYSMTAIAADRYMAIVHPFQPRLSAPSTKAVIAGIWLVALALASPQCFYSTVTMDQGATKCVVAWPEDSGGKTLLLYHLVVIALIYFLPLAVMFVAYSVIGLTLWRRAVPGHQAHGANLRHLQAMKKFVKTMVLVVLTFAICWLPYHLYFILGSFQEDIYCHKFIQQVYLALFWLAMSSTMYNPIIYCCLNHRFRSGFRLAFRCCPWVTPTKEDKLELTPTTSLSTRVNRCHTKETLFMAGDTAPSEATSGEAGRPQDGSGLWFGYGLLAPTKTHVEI
Also: assay procedure not described here.

Sequence of Histamine H2 receptor (P25021 whole entry): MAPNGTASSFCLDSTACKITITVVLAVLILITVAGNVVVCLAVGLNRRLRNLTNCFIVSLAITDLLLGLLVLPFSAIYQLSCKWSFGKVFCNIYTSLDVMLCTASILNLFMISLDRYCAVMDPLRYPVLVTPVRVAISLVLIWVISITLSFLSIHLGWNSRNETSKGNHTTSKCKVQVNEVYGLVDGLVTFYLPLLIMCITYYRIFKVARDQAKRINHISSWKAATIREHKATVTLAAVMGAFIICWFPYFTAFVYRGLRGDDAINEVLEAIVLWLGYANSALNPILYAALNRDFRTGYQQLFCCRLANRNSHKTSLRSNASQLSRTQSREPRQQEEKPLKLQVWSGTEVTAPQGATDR
Sequence of Gamma-aminobutyric acid type B receptor subunit 1 (Q9UBS5 whole entry): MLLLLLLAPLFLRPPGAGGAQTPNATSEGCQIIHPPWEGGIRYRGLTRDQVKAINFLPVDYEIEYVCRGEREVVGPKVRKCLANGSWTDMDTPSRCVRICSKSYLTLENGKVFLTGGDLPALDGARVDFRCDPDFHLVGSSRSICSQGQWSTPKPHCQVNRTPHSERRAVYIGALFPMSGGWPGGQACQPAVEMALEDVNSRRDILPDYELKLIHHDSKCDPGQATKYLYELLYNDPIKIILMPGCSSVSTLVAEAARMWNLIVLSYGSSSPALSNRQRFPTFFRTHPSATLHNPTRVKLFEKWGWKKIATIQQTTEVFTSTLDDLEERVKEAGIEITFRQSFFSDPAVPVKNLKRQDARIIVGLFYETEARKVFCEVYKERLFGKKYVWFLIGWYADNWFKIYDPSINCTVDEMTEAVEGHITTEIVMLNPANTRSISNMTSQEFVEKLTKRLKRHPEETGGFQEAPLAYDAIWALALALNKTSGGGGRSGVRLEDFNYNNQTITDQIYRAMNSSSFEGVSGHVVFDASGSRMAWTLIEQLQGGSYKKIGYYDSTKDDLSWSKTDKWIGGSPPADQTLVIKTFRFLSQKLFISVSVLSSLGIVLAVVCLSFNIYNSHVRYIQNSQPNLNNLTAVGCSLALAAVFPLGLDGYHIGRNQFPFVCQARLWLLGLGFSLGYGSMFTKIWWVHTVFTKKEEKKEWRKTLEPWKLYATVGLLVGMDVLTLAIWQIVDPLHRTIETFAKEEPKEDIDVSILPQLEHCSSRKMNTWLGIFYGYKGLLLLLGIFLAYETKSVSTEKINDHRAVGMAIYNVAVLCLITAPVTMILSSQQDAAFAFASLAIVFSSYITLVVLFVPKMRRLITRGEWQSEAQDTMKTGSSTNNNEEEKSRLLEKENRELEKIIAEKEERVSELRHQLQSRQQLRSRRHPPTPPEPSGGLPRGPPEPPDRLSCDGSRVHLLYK
Sequence of Beta-1 adrenergic receptor (P08588 whole entry): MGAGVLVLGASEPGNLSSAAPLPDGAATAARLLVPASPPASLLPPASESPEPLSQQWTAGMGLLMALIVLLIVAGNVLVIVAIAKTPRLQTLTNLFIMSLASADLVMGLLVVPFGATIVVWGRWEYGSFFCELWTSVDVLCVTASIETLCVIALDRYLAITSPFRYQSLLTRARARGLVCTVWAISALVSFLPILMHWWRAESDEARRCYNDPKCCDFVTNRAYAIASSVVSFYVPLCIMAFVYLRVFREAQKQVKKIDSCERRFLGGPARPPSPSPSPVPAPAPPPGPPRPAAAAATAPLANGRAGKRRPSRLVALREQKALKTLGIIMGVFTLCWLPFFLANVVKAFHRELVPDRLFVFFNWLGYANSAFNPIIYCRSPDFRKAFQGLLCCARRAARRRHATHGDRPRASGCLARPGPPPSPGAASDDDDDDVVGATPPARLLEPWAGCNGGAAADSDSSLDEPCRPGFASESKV
Sequence of Rod cGMP-specific 3',5'-cyclic phosphodiesterase subunit alpha (P16499 whole entry): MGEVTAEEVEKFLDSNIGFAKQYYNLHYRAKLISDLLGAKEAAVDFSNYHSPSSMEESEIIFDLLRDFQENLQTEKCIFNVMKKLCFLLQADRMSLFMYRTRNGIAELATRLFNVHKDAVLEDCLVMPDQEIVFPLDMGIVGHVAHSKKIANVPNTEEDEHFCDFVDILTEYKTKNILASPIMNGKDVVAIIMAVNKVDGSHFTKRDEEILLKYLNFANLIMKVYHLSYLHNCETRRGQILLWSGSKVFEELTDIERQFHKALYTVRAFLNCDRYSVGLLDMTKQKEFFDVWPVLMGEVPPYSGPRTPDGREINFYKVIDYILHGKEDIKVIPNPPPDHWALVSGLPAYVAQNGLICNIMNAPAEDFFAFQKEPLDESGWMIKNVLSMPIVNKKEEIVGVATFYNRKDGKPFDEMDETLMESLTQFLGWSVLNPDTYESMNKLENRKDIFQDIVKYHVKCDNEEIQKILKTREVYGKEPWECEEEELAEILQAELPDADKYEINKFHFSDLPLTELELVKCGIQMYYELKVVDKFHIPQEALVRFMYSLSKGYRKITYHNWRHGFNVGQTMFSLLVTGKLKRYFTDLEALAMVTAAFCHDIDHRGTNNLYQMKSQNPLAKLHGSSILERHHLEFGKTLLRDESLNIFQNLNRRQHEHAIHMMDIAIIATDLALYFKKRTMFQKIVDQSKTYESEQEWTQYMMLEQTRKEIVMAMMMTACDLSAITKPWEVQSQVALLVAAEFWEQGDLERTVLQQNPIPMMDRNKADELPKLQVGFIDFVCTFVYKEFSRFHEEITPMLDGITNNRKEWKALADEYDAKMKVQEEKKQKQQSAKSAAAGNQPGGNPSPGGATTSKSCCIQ

In [1], `O=C(Nc1cccc2c(=O)cc(-c3nnn[nH]3)oc12)c1ccc(OCCCCc2ccccc2)cc1` yielded an AC50 of 21.7 µM.

As for `CC(/C=C1\SC(=S)N(CC(=O)O)C1=O)=C\c1ccccc1`, the half-maximal activity concentration (AC50) is > 30 µM in test [2]; > 30 µM in test [3]; > 30 µM in test [4]; 4 µM in test [5]; > 30 µM in test [6].

On to `CC1(C)S[C@@H]2[C@H](NC(=O)[C@H](N)c3ccc(O)cc3)C(=O)N2[C@H]1C(=O)O` [AMOXICILLIN], for which the AC50 was > 10 µM in test [7]; > 10 µM in [8]; > 10 µM in [9]; 4.1 µM in test [3]; > 30 µM in test [4]; > 30 µM in test [5]. Moreover, the AC50 in [10] was > 10 µM; in test [6] it was > 30 µM; in test [11] it was > 10 µM.

Regarding `Clc1cccc(Cl)c1N=C1NCCN1` [CLONIDINE], the AC50 in [9] is > 10 µM.

`COC(=O)[C@H](c1ccccc1Cl)N1CCc2sccc2C1` [CLOPIDOGREL]: the AC50 in test [7], in test [9], in [10] and in test [11] was > 10 µM in each case.

In the case of `CN1C[C@H](C(=O)N[C@]2(C)O[C@@]3(O)[C@@H]4CCCN4C(=O)[C@H](Cc4ccccc4)N3C2=O)C[C@@H]2c3cccc4[nH]cc(c34)C[C@H]21` [DIHYDROERGOTAMINE], the AC50 in [9] amounted to 0.257 µM. This counts as sub-micromolar.

Turning to `CCC(=O)O[C@@H](O[P@](=O)(CCCCc1ccccc1)CC(=O)N1C[C@H](C2CCCCC2)C[C@H]1C(=O)O)C(C)C` [FOSINOPRIL], the AC50 in [1] is > 30 µM.

With `Nc1nc(O)c2ncn(COC(CO)CO)c2n1` [GANCICLOVIR], the AC50 in test [2] was > 30 µM.

For the compound `CC(C)(N)C(=O)N[C@H](Cc1c[nH]c2ccccc12)C(=O)N[C@H](Cc1c[nH]c2ccccc12)NC=O` [MACIMORELIN], in [1], the AC50 is > 30 µM.

With `Cc1cnc(NC(=O)C2=C(O)c3ccccc3S(=O)(=O)N2C)s1` [MELOXICAM], the AC50 in test [7], in test [8], in [9], in test [10] and in test [11] was > 10 µM in each case.

As for `CN(C)c1cc(CNCC(C)(C)C)c(O)c2c1C[C@H]1C[C@H]3[C@H](N(C)C)C(O)=C(C(N)=O)C(=O)[C@@]3(O)C(O)=C1C2=O` [OMADACYCLINE], the AC50 in test [1] and in [7] was > 30 µM in each case.

`COc1ccnc(C[S+]([O-])c2nc3ccc(OC(F)F)cc3[nH]2)c1OC` (configuration not stated) [PANTOPRAZOLE]: the AC50 in [9] is > 10 µM.

Take `CNC[C@H](O)c1cccc(O)c1` [PHENYLEPHRINE]: the AC50 in test [8] and in [9] was > 10 µM each time.

In the case of `CNC(=O)c1cc(Oc2ccc(NC(=O)Nc3ccc(Cl)c(C(F)(F)F)c3)c(F)c2)ccn1` [REGORAFENIB], the AC50 in test [1], in test [3], in [4], in test [5] and in test [6] was > 30 µM each time.

Regarding `CCOc1cc(CC(=O)N[C@@H](CC(C)C)c2ccccc2N2CCCCC2)ccc1C(=O)O` [REPAGLINIDE], the AC50 was > 30 µM in test [3], > 30 µM in [4], 27 µM in test [5] and > 30 µM in [6].

Consider `CCCN(CCC)CCc1cccc2c1CC(=O)N2` [ROPINIROLE], for which the AC50 in test [9] was > 10 µM.

Consider `CC(C)N(CCCCOCC(=O)NS(C)(=O)=O)c1cnc(-c2ccccc2)c(-c2ccccc2)n1` [SELEXIPAG], for which the AC50 in test [2] was > 30 µM.

As to `CC(=O)S[C@@H]1CC2=CC(=O)CC[C@]2(C)[C@H]2CC[C@@]3(C)[C@@H](CC[C@@]34CCC(=O)O4)[C@H]12` [SPIRONOLACTONE], in test [9], the AC50 was > 10 µM.

Turning to `CCCCNc1ccc(C(=O)OCCN(C)C)cc1` [TETRACAINE], the AC50 was > 30 µM in test [1]; > 10 µM in [7]; > 10 µM in [8]; 4.08 µM in test [9]; > 10 µM in [10]; > 10 µM in test [11].

Regarding `CN1CCN(CCCN2c3ccccc3Sc3ccc(S(=O)(=O)N(C)C)cc32)CC1` [THIOPROPERAZINE], the AC50 in [1] is > 30 µM.

`CC1(C)O[C@@H]2[C@@H](CO[C@@]3(COS(N)(=O)=O)OC(C)(C)O[C@@H]23)O1` [TOPIRAMATE]: the AC50 in test [1] was > 30 µM; in test [8], > 10 µM; in test [9] it was > 10 µM.

Regarding `Cc1cc(CC(=O)O)n(C)c1C(=O)c1ccc(Cl)cc1` [ZOMEPIRAC], the AC50 in test [2] is > 30 µM.

In general, AC50 refers to the midpoint of the concentration-response curve, whichever way the signal moves. High values mean weaker potency, low ones greater potency.
